Measurements published in publication PMC3821218 (Structure (London, England : 1993), 2013).
Marks after values point to notes of the source that are not given here.

What was measured:
RR468 [1] = target: T1, RR468 (Thermotoga maritima, UniProt Q9WYT9, V13P/L14I/I17M/N21V); conditions: free RR468*; phosphomimetic; NaF/BeSO4/MgCl2, pH 4.6
RR468 [2] = target: T1, RR468; experiment: autophosphorylation from […]acetyl phosphate; type: biochemical; conditions: labelled compound; 5 mM MgCl2, pH 8.0, room temperature, 1 hour
crystal structure = target: the molecule itself; experiment: crystal structure

## [F][Be-]([F])[F] [BeF3^−]
RR468 [1]
  X-ray crystal structure, 1.80 Å: the free forms of HK853* (HKf*) bound to ADP and RR468* (RRf*) bound to BeF3^−

## CC(=O)OP(=O)(O)O [acetyl-phosphate]
RR468 [2]
  autophosphorylation from [32P]acetyl phosphate: RR468* autophosphorylates more poorly than RR468 using this method

B1: HK853, wild type, cytoplasmic portion (enzyme, Thermotoga maritima)
chain: VENVTESKELERLKRIDRMKTEFIANISHELRTPLTAIKAYAETIYNSLGELDLSTLKEFLEVIIDQSNHLENLLNELLDFSRLERKSLQINREKVDLCDLVESAVNAIKEFASSHNVNVLFESNVPCPVEAYIDPTRIRQVLLNLLNNGVKYSKKDAPDKYVKVILDEKDGGVLIIVEDNGIGIPDHAKDRIFEQFYRVDSSLTYEVPGTGLGLAITKEIVELHGGRIWVESEVGKGSRFFVWIPKDRAGEDNRQDN
Crystal structure
  stoichiometry N: 2
